Reference: paper PMC5711933, “Intracellular biomass flocculation as a key mechanism of rapid bacterial killing by cationic, amphipathic antimicrobial peptides and peptoids” (Scientific Reports, 2017)
Non-standard residues stand in square brackets, D forms with d. Residues, ends and D or L forms follow the SMILES beside them. Nspe = C[C@H](NCC(=O)O)c1ccccc1; Nlys = NCCCCNCC(=O)O

How the values were obtained:
[1] = RP-HPLC elution (% ACN) as measure of hydrophobicity; assay type: physicochemical; conditions: chromatographic hydrophobicity; gradient of 5–95% acetonitrile (ACN) over 45 minutes, C18 column, 0.2 mL/min; average of three replicates
E. coli ATCC 35218 [2] = assay type: cell-based; conditions: CAMHB, 35 °C, 16 h, final 5 × 10^5 CFU/mL; reproducible between three independent replicates
Description: MICs were determined according to CLSI M7-A6 protocols in a 96-well microtiter plate. In test wells, 50 μL bacterial inoculum (1 × 10^6 CFU/ml) in cation-adjusted Mueller-Hinton broth (CAMHB) was added to 50 μL peptoid solution in CAMHB (prepared by 1:2 serial dilutions). Positive controls contained 50 μL inoculum and 50 μL CAMHB without peptoid. […] MIC values reported were reproducible between three independent experimental replicates, each consisting of two parallel trials.

Erythrocytes = assay: Hemolysis assay; assay type: cell-based; conditions: human erythrocytes in PBS pH 7.4, 1 h at 37 °C, A350; three independent replicates (two for LL-37 and fowlicidin-1)
Description: The plate was then centrifuged at 1200 g for 15 min, 100 μL of the supernatant from each well transferred to a fresh microtiter plate, and A350 measured.

E. coli ATCC 35218 [3] = assay: Bacterial count by plating after 1-hour treatment, before SEM sample preparation; assay type: cell-based; conditions: 1 hour in PBS, control 5 × 10^5 CFU/mL
Description: E. coli was treated with 10 μM peptide or peptoid for 1 hour in phosphate-buffered saline (PBS). […] We used 10 μM peptide/peptoid for all samples since it is near the MICs of the majority of the oligomers.
Before fixation, aliquots of each samples were serially diluted and plated on agar to determine the concentration of live bacteria remaining after the 1-hour treatment. […] (1) SEM samples were treated in PBS (as discussed above), whereas MIC assays are performed in cation-adjusted Mueller-Hinton broth. AMPs and ampetoids are known to interact with ions in the media (for example, when switching from plain Mueller-Hinton broth to cation-adjusted Mueller-Hinton broth)[1], so differences in activity may be due to changes in media composition. (2) the treatments were for one hour only, whereas MICs are determined after 16 hours of growth. […] (3) Some of these compounds may cause inhibition of growth without causing bacterial cell death (i.e., they are bacteriostatic—which is what the MIC indicates—rather than bactericidal—which is determined by plating and counting colonies). […]
Overnight cultures of E. coli ATCC 35218 were centrifuged for 10 min and 2500 × g at room temperature, then resuspended in PBS. […] Bacterial concentrations of the diluted suspensions were calculated from their OD590 values using optical density curves derived from pre-determined concentrations. […]

E. coli ATCC 35218 [4] = assay: Bacterial count by plating after treatment, before TEM sample preparation; assay type: cell-based
Description: E. coli ATCC 35218, grown overnight at 35 °C in Mueller-Hinton broth (MHB), were resuspended in 1X (150 mM) PBS, pH 7.4, and diluted to a concentration of 1 × 10^8 CFU/mL. Aqueous peptide/peptoid stock solutions were added to 1 mL aliquots of the suspension to the desired final concentration. After 1 hour, small volumes of each sample were serially diluted, plated, and incubated overnight at 35 °C, to be counted the following day. The remaining volume of each sample was centrifuged, and the pellet resuspended and enrobed in 5–10 µL of 2% low-melting agarose (gelling temperature 25° ± 5 °C) then drawn up into the tip of a Pasteur pipette. The solidified rods were extruded into fixative (2% glutaraldehyde, 2% paraformaldehyde, 50 mM PBS, pH 7.4). […] 50 nm thin sections of embedded samples were cut using a diamond knife, stained for 5 min in 5% aqueous uranyl acetate, then rinsed in H2O. Sections were examined in a JEOL 1230 TEM. Experimental conditions were each repeated in at least two independent trials. For each replicate of each sample, bacteria across the thin section were first surveyed to determine morphological characteristics representative of that sample, then images were captured of at least five bacteria displaying those morphologies with an emphasis on clean (i.e., orthogonal) transverse and/or longitudinal sections. Each image shown is thus representative of the ultrastructural characteristics observed in bacteria throughout a given sample and between replicates.

EGFP-Luc plasmid = assay: DNA retardation assay (gel electrophoresis); assay type: binding; conditions: EGFP-Luc plasmid in TBS, complexes 20 min at room temperature, 1–2% agarose gel
Description: DNA retardation was analyzed by gel electrophoresis. Peptoid/peptide-DNA complexes were formed by adding 10 µL of peptide/peptoid solution of varying concentrations to 10 µL DNA solution (EGFP-Luc plasmid in Tris-buffered saline (TBS) buffer), and the resulting solution was mixed by gentle aspiration. Complexes were incubated for 20 min at room temperature. After complex formation, 20 µL of each sample were loaded onto a 1–2% agarose gel in Tris/borate/EDTA (TBE) buffer, which ran at 120 V for 15 min. DNA bands on the gel were visualized under UV light by ethidium bromide staining.

[5] = tested on: Bioluminescent P. aeruginosa; assay type: cell-based, Pseudomonas aeruginosa; conditions: 12.5 µM, LB, 37 °C, 10 min; average of three independent experiments with two replicates each
Description: The decrease in bioluminescence at 37 °C was measured for a range of concentrations from 0 – 100 μM (Supp. Figs. S6 and S7).
Bioluminescent P. aeruginosa [73] was grown at 37 °C in Luria-Bertani (LB) broth. […] In a 96-well plate, 50 µL of P. aeruginosa solution (1 × 10^6 CFU/mL) was added to 50 µL of antimicrobial solution, and the bioluminescence was measured using an IVIS imaging system (a Xenogen product from Caliper Life Sciences, Hopkinton, MA) at 10 min intervals for 2 h. The reported values are the average of three independent experiments with two replicates each.

## C[C@@H](c1ccccc1)N(CC(N)=O)C(=O)CN(C(=O)CN(CCCCN)C(=O)CN(C(=O)CN(C(=O)CN(CCCCN)C(=O)CN(C(=O)CN(C(=O)CN(CCCCN)C(=O)CN(C(=O)CN(C(=O)CNCCCCN)[C@@H](C)c1ccccc1)[C@@H](C)c1ccccc1)[C@@H](C)c1ccccc1)[C@@H](C)c1ccccc1)[C@@H](C)c1ccccc1)[C@@H](C)c1ccccc1)[C@@H](C)c1ccccc1 [compound 1] (H-[Nlys][Nspe][Nspe][Nlys][Nspe][Nspe][Nlys][Nspe][Nspe][Nlys][Nspe][Nspe]-NH2)
[1]
  % ACN at RP-HPLC elution: 64.2%
E. coli ATCC 35218 [2]
  E. coli ATCC 35218 MIC: 6.3 µM
Erythrocytes
  HD10 (hemolytic dose; concentration for 10% hemolysis): 14 µM
  HD50 (hemolytic dose; concentration for 50% hemolysis): 62 µM
E. coli ATCC 35218 [3]
  SEM: Bacterial count after 10 µM treatment (% of control): 40 % of control
E. coli ATCC 35218 [4]; 10 µM, 1 hour in PBS pH 7.4, control 1 × 10^8 CFU/mL
  TEM: Bacterial count after 10 µM treatment (% of control): 0.2 % of control
E. coli ATCC 35218 [4]; 100 µM, 5 minutes
  Bacteria remaining after 5-min treatment: 1 × 10^4 CFU/mL
  Bacteria remaining after 5-min treatment (% of bacteria in the control): 0.01%
E. coli ATCC 35218 [4]; 100 µM, 1 hour in PBS pH 7.4, control 1 × 10^8 CFU/mL
  TEM: Bacterial count after 100 µM treatment (% of control): 0 (0) % of control
E. coli ATCC 35218 [4]; 100 µM, 15, 30 and 60 minutes
  Bacterial killing after 15-min, 30-min, and 60-min treatments: all bacteria were killed
EGFP-Luc plasmid
  Retardation assay: mass of compound required to completely retard migration of 1 µg of DNA: 3.0 µg
[5]
  Decrease in bioluminescence within 10 min: ~ 99.9%
